Measured values published in patent US20080269343A1, “GALENIC FORMULATIONS OF ORGANIC COMPOUNDS” (priority 2004, published 2008).
Like-named read-outs stand apart in the source and are kept apart here.

Columns and labels:
[1] = Single-dose 300 mg pharmacokinetic study in healthy and type 2 diabetic subjects (Example 4); assay type: in vivo, human; details: single oral dose 300 mg; for AUC(0-t): read-out: AUC0-96
Experimental: An open label, non-randomized, single center, and parallel group single dose study in healthy and type 2 diabetic subjects was carried out. Two parallel groups, one group of 30 healthy, and one group of 30 type 2 diabetic patients, (age, weight and race matched) were enrolled, and all subjects completed the study in each group. Each subject participated in a 21-day screening period, a baseline period (Day −1), one day treatment period (Day 1) and a study completion evaluation 96 hours after the treatment.
Once eligibility had been confirmed each subject received a single oral dose of 300 mg of aliskiren (dosage form 3) on Day 1 with 96 hour sampling of pharmacokinetic (PK) parameters. Subjects were admitted to the study site at least 12 hours prior to the dosing and were confined to the clinic for at least 48 hours post-dose and were advised to come back for the rest of the PK samples collection. Subjects were to undergo a study completion evaluation on 96 hours post-dose prior to discharge from the study site.
Type 2 diabetic patients had been diagnosed with type 2 diabetes at least 1 year prior to screening, and were otherwise in good health. Healthy subjects were selected to match type 2 diabetes patients with regard to age (±5 yr) and weight (±10 kg).
Blood samples were collected to determine the pharmacokinetics following a single oral dose of 300 mg of aliskiren. Plasma concentrations of aliskiren were used to determine the pharmacokinetic parameters using non-compartmental methods, and the data are summarized in FIG. 4, and Tables 2 and 3.

[2] = Steady-state pharmacokinetics of aliskiren 300 mg alone, hydrochlorothiazide interaction study, Day 15 (Example 7); assay type: in vivo, human; details: 300 mg daily, Day 15, healthy volunteers N 22; for AUC / Cmax / Tmax: both sexes, human, in vivo, oral, 300 mg
Experimental: The study employed was an open-label, two-period, multiple dose design to evaluate the pharmacokinetic drug-drug interaction between hydrochlorothiazide (HCTZ) and aliskiren when given alone or in combination to healthy volunteers. After screening, a total of 22 healthy male and female volunteers were enrolled into the study. The subjects were admitted to the study center at least 12 hours prior to the initial dosing of HCTZ for baseline evaluation. If subjects met all eligibility criteria at baseline, they were randomized into the study and confined to the clinic until study completion. All study medications were taken under fasted conditions. The subjects remained in bed for at least 4 hours after dosing on PK sampling days. The study was completed with the end of study evaluations on Day 20, after the last blood sample was collected.
In period 1 (study Days 1-4), subjects received a single 25 mg daily dose of HCTZ. Period 1 was followed by a 4 day washout period, study Days 5-8. In period 2 (study Days 9-19), subjects received 300 mg of aliskiren once a day for a total of 11 days (Days 9-19), with a single 25 mg dose of HCTZ co-administered for 4 days (Days 16-19).
Pharmacokinetic blood sampling for aliskiren alone occurred on study Day 15 up to 24 hours post-dose (5-mL blood samples were collected into lithium heparin tubes on Day 15 of the study at pre-dose, 0.5, 1, 2, 3, 4, 6, 8, 12, 16 and 24 hours after dosing).

[3] = Max, type 2 diabetic patients n = 30
[4] = Min, type 2 diabetic patients n = 30
[5] = human, plasma, po, 300 mg, Geometric Mean, healthy subjects n = 30
[6] = human, plasma, po, 300 mg, Geometric Mean, type 2 diabetic patients n = 30
[7] = human, plasma, po, 300 mg, Median, healthy subjects n = 30
[8] = human, plasma, po, 300 mg, Median, type 2 diabetic patients n = 30
[9] = human, plasma, po, 300 mg, arithmetic mean, healthy subjects n = 30
[10] = human, plasma, po, 300 mg, arithmetic mean, type 2 diabetic patients n = 30

AUC0-96 ([1]; Max, healthy subjects n = 30): 4546 ng·h/mL
AUC0-∞ ([1]; Max, healthy subjects n = 30): 5015 ng·h/mL
Cmax ([1]; Max, healthy subjects n = 30): 979 ng/mL
Tmax ([1]; Max, healthy subjects n = 30): 6.00 h
AUC0-96 [1, 3]: 5662 ng·h/mL
AUC0-∞ [1, 3]: 6171 ng·h/mL
Cmax [1, 3]: 1580 ng/mL
AUC0-96 ([1]; Min, healthy subjects n = 30): 425 ng·h/mL
AUC0-∞ ([1]; Min, healthy subjects n = 30): 482 ng·h/mL
Cmax ([1]; Min, healthy subjects n = 30): 66 ng/mL
Tmax ([1]; Min, healthy subjects n = 30): 0.25 h
AUC0-96 [1, 4]: 431 ng·h/mL
AUC0-∞ [1, 4]: 465 ng·h/mL
Cmax [1, 4]: 80 ng/mL
Tmax [1, 4]: 0.25 h
AUC(0-inf) [1, 5]: 1500 ng·h/mL
AUC(0-t) [1, 5]: 1380 ng·h/mL
Cmax ([1]; human, plasma, po, 300 mg, Geometric Mean, healthy subjects n = 30, read-out: Cmax): 283 ng/mL
Tmax ([1]; human, plasma, po, 300 mg, Geometric Mean, healthy subjects n = 30, read-out: tmax): 1.32 h
AUC(0-inf) [1, 6]: 1740 ng·h/mL
AUC(0-t) [1, 6]: 1590 ng·h/mL
Cmax ([1]; human, plasma, po, 300 mg, Geometric Mean, type 2 diabetic patients n = 30, read-out: Cmax): 322 ng/mL
Tmax ([1]; human, plasma, po, 300 mg, Geometric Mean, type 2 diabetic patients n = 30, read-out: tmax): 1.22 h
AUC(0-inf) [1, 7]: 1340 ng·h/mL
AUC(0-t) [1, 7]: 1260 ng·h/mL
Cmax ([1]; human, plasma, po, 300 mg, Median, healthy subjects n = 30, read-out: Cmax): 278 ng/mL
Tmax ([1]; human, plasma, po, 300 mg, Median, healthy subjects n = 30, read-out: tmax): 1.25 h
AUC(0-inf) [1, 8]: 1900 ng·h/mL
AUC(0-t) [1, 8]: 1610 ng·h/mL
Cmax ([1]; human, plasma, po, 300 mg, Median, type 2 diabetic patients n = 30, read-out: Cmax): 328 ng/mL
Tmax ([1]; human, plasma, po, 300 mg, Median, type 2 diabetic patients n = 30, read-out: tmax): 1 h
AUC(0-inf) [1, 9]: 1780 ng·h/mL
AUC(0-t) [1, 9]: 1640 ng·h/mL
Cmax ([1]; human, plasma, po, 300 mg, arithmetic mean, healthy subjects n = 30, read-out: Cmax): 348 ng/mL
Tmax ([1]; human, plasma, po, 300 mg, arithmetic mean, healthy subjects n = 30, read-out: tmax): 1.97 h
AUC(0-inf) [1, 10]: 2040 ng·h/mL
AUC(0-t) [1, 10]: 1860 ng·h/mL
Cmax ([1]; human, plasma, po, 300 mg, arithmetic mean, type 2 diabetic patients n = 30, read-out: Cmax): 394 ng/mL
Tmax ([1]; human, plasma, po, 300 mg, arithmetic mean, type 2 diabetic patients n = 30, read-out: tmax): 1.62 h
Cmin^SS ([2]; Geometric Mean): 32.5 ng/mL
AUCτ ([2]; Max): 3801 ng·h/mL
Cmax^SS ([2]; Max): 872.0 ng/mL
Cmin^SS ([2]; Max): 56.5 ng/mL
tmax^SS ([2]; Max): 6.00 h
Cmin^SS ([2]; Median): 35.4 ng/mL
AUCτ ([2]; Min): 512 ng·h/mL
Cmax^SS ([2]; Min): 27.3 ng/mL
Cmin^SS ([2]; Min): 13.4 ng/mL
tmax^SS ([2]; Min): 0.50 h
Cmin^SS ([2]; arithmetic mean): 35.0 ng/mL
AUC ([2]; Geometric Mean): 2070 ng·h/mL
Cmax ([2]; Geometric Mean): 354 ng/mL
Tmax ([2]; Geometric Mean): 1.84 h
AUC ([2]; Median): 2320 ng·h/mL
Cmax ([2]; Median): 406 ng/mL
Tmax ([2]; Median): 2.24 h
AUC ([2]; arithmetic mean): 2310 ng·h/mL
Cmax ([2]; arithmetic mean): 425 ng/mL
Tmax ([2]; arithmetic mean): 2.23 h
SMILES: COCCCOc1cc(C[C@@H](C[C@H](N)[C@@H](O)C[C@H](C(=O)NCC(C)(C)C(N)=O)C(C)C)C(C)C)ccc1OC [aliskiren, 2(S),4(S),5(S),7(S)—N-(3-amino-2,2-dimethyl-3-oxopropyl)-2,7-di(1-methylethyl)-4-hydroxy-5-amino-8-[4-methoxy-3-(3-methoxy-propoxy)phenyl]-octanamide]
